Results from patent US7495002B2, “3-methyl-7-butinyl-xanthines, the preparation thereof and their use as pharmaceutical compositions” (Boehringer Ingelheim International GmbH, priority 2004, dated 2009).

Target: T1, DPP-IV (Homo sapiens, UniProt P27487)
T1 construct: an extract of the human colon carcinoma cell line Caco-2 is used as the DPP IV source; endogenous in cells; host or cells: Caco-2 (human colon carcinoma), differentiated to induce DPP-IV expression; Nonidet-P40 solubilised extract
Assay: DPP-IV assay with extract of Caco-2 cells as DPP IV source, AFC substrate, fluorescence
Format: biochemical
Settings: extract of human colon carcinoma cell line Caco-2; substrate 100 μM; 60 minutes at ambient temperature; read-out: DPP IV inhibition IC50
Method: The differentiation of the cells in order to induce the DPP-IV expression was carried out in accordance with the description by Reiher et al. in an article entitled “Increased expression of intestinal cell line Caco-2”, which appeared in Proc. Natl. Acad. Sci. Vol. 90, pp. 5757-5761 (1993). The cell extract was obtained from cells solubilised in a buffer (10 mM Tris HCl, 0.15 M NaCl, 0.04 t.i.u. aprotinin, 0.5% Nonidet-P40, pH 8.0) by centrifugation at 35,000 g for 30 minutes at 4° C. (to remove cell debris).
The DPP-IV assay was carried out as follows:
50 μl of substrate solution (AFC; AFC is amido-4-trifluoromethylcoumarin), final concentration 100 μM, were placed in black microtitre plates. 20 μl of assay buffer (final concentrations 50 mM Tris HCl pH 7.8, 50 mM NaCl, 1% DMSO) was pipetted in. The reaction was started by the addition of 30 μl of solubilised Caco-2 protein (final concentration 0.14 μg of protein per well). The test substances under investigation were typically added prediluted to 20 μl, while the volume of assay buffer was then reduced accordingly. The reaction was carried out at ambient temperature, the incubation period was 60 minutes. Then the fluorescence was measured in a Victor 1420 Multilabel Counter, with the excitation wavelength at 405 nm and the emission wavelength at 535 nm. Dummy values (corresponding to 0% activity) were obtained in mixtures with no Caco-2 protein (volume replaced by assay buffer), control values (corresponding to 100% activity) were obtained in mixtures without any added substance. The potency of the test substances in question, expressed as IC50 values, were calculated from dosage/activity curves consisting of 11 measured points in each case.

T1 sequence (P27487 whole entry): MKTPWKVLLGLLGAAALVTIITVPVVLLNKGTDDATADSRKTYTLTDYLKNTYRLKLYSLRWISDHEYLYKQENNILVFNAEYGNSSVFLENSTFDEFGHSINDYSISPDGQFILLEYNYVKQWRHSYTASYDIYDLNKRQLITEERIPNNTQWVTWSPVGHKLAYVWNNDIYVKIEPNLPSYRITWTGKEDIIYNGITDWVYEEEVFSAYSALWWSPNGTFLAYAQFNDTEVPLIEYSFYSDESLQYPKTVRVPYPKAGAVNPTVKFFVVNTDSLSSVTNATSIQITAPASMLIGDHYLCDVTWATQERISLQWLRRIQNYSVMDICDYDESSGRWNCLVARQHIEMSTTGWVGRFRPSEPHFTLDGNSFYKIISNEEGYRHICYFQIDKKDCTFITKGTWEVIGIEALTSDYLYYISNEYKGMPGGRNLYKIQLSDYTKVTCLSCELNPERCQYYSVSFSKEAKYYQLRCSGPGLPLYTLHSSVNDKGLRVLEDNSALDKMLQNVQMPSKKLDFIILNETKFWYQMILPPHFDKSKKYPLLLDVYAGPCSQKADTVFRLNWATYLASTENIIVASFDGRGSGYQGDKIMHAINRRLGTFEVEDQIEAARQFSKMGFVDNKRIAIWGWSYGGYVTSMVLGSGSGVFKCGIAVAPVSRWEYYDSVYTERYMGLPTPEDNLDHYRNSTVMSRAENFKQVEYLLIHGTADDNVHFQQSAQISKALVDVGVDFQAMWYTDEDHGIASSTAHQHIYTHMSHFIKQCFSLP

| SMILES | IC50 |
| --- | --- |
| CC#CCn1c(N(C)C[C@H](C)N)nc2c1c(=O)n(Cc1ccc3nccnc3c1)c(=O)n2C [2(10), 1-[(quinoxalin-6-yl)methyl]-3-methyl-7-(2-butyn-1-yl)-8-[(S)-(2-amino-propyl)-methylamino]-xanthine] | 3 nM |
| CC#CCn1c(N(C)CC(C)(C)N)nc2c1c(=O)n(Cc1nc(C)c3ccccc3n1)c(=O)n2C [2(1), 1-[(4-methyl-quinazolin-2-yl)methyl]-3-methyl-7-(2-butyn-1-yl)-8-[(2-amino-2-methyl-propyl)-methylamino]-xanthine] | 3 nM |
| CC#CCn1c(N(C)CCN)nc2c1c(=O)n(Cc1nc(C)c3ccccc3n1)c(=O)n2C [1(1), 1-[(4-methyl-quinazolin-2-yl)methyl]-3-methyl-7-(2-butyn-1-yl)-8-[(2-amino-ethyl)-methylamino]-xanthine] | 2 nM |
| CC#CCn1c(N(C)C[C@H](C)N)nc2c1c(=O)n(Cc1ncccc1C#N)c(=O)n2C [2(11), 1-[(3-cyano-pyridin-2-yl)methyl]-3-methyl-7-(2-butyn-1-yl)-8-[(S)-(2-amino-propyl)-methylamino]-xanthine] | 3 nM |
| CC#CCn1c(N(C)C[C@H](C)N)nc2c1c(=O)n(Cc1nc(C)c3ccccc3n1)c(=O)n2C [Example 2(4), 1-[(4-methyl-quinazolin-2-yl)methyl]-3-methyl-7-(2-butyn-1-yl)-8-[(S)-(2-amino-propyl)-methylamino]-xanthine] | 2 nM |
| CC#CCn1c(N(C)C[C@H](C)N)nc2c1c(=O)n(Cc1ncc3ccccc3c1C#N)c(=O)n2C [2(12), 1-[(4-cyano-isoquinolin-3-yl)methyl]-3-methyl-7-(2-butyn-1-yl)-8-[(S)-(2-amino-propyl)-methylamino]-xanthine] | 2 nM |

System: rats
Assay: Tolerability in rats after oral administration
Format: in vivo
Settings: oral administration of 10 mg/kg

| SMILES | toxic side effects |
| --- | --- |
| CC#CCn1c(N(C)C[C@H](C)N)nc2c1c(=O)n(Cc1nc(C)c3ccccc3n1)c(=O)n2C [Example 2(4), 1-[(4-methyl-quinazolin-2-yl)methyl]-3-methyl-7-(2-butyn-1-yl)-8-[(S)-(2-amino-propyl)-methylamino]-xanthine] | no toxic side effects could be detected |
